In patent publication US9084770B2, “Modulation of insulin like growth factor I receptor expression in cancer” (Antisense Therapeutics, Ltd., priority 2008, dated 2015):

These substances were tested on human IGF-IR mRNA (assay: Antisense inhibition of human IGF-IR mRNA levels by quantitative RT-PCR (Table 1)). Settings: as shown in Table 1.
Type: cell-based
Set-up: %INHIB (human IGF-IR mRNA levels): concentration or dose not given beside the values
Source text: Treatment of A549 cell cultures with oligonucleotides targeting IGF-IR is as described in WO 2004/072284.
Quantitation of IGF-IR mRNA levels was accomplished by RT-PCR using the ABI PRISM (trademark) 7600, 7700, or 7900 Sequence Detection System (PE-Applied Biosystems, Foster City, Calif.) according to manufacturer's instructions. This is a closed-tube, non-gel-based, fluorescence detection system which allows high-throughput quantitation of PCR products in real-time. As opposed to standard PCR in which amplification products are quantitated after the PCR is completed, products in real-time quantitative PCR are quantitated as they accumulate. This is accomplished by including in the PCR reaction an oligonucleotide probe that anneals specifically between the forward and reverse PCR primers, and contains two fluorescent dyes. A reporter dye (e.g., FAM or JOE, obtained from either PE-Applied Biosystems, Foster City, Calif., Operon Technologies Inc., Alameda, Calif. or Integrated DNA Technologies Inc., Coralville, Iowa) is attached to the 5′-end of the probe and a quencher dye (e.g., TAMRA, obtained from either PE-Applied Biosystems, Foster City, Calif., Operon Technologies Inc., Alameda, Calif. or Integrated DNA Technologies Inc., Coralville, Iowa) is attached to the 3′-end of the probe. When the probe and dyes are intact, reporter dye emission is quenched by the proximity of the 3′ quencher dye. During amplification, annealing of the probe to the target sequence creates a substrate that can be cleaved by the 5′-exonuclease activity of Taq polymerase. […] With each cycle, additional reporter dye molecules are cleaved from their respective probes, and the fluorescence intensity is monitored at regular intervals by laser optics built into the ABI PRISM (trademark) Sequence Detection System. In each assay, a series of parallel reactions containing serial dilutions of mRNA from untreated control samples generates a standard curve that is used to quantitate the percent inhibition after antisense oligonucleotide treatment of test samples.
PCR reagents were obtained from Invitrogen Corporation, (Carlsbad, Calif.). RT-PCR reactions were carried out by adding 20 μL PCR cocktail (2.5×PCR buffer minus MgCl2, 6.6 mM MgCl2, 375 μM each of dATP, dCTP, […] and dGTP, 375 nM each of forward primer and reverse primer, 125 nM of probe, 4 Units RNAse inhibitor, 1.25 Units PLATINUM (registered trademark) Taq, 5 Units MuLV reverse transcriptase, and 2.5×ROX dye) to 96-well plates containing 30 μL total RNA solution (20-200 ng). The RT reaction was carried out by incubation for 30 minutes at 48° C. Following a 10 minute incubation at 95° C. to activate the PLATINUM (trademark) Taq, 40 cycles of a two-step PCR protocol were carried out: 95° C. for 15 seconds (denaturation) followed by 60° C. for 1.5 minutes (annealing/extension).
Gene target quantities obtained by RT-PCR are normalized using either the expression level of GAPDH, a gene whose expression is constant, or by quantifying total RNA using RiboGreen (trademark) (Molecular Probes, Inc. Eugene, Oreg.). GAPDH expression is quantified by RT-PCR, by being run simultaneously with the target, multiplexing, or separately. Total RNA is quantified using RiboGreen (trademark) RNA quantification reagent (Molecular Probes, Inc. Eugene, Oreg.). Methods of RNA quantification by RiboGreen (trademark) are taught in Jones et al., 1998.
Probes and primers to human IGF-IR were designed to hybridize to the IGF-IR nucleotide sequence, using published sequence information (GenBank accession number NM000875 (SEQ ID NO:76) or M69229 (SEQ ID NO:77) which is the 5′ untranslated of the IGF-IR gene sequence (see FIG. 6).
In accordance with the present invention, a series of antisense compounds were designed to target different regions of the human IGF-IR mRNA or the 5′ untranslated region, using published sequences set forth in NM000875 (SEQ ID NO:77) and M69229 (SEQ ID NO:76). […]

In the case of “323737 (antisense CTGCTTCGGCTGGACATGGT; listed as DNA, chemistry not fully specified) [compound 323737]”, the “inhibition of IGF-IR expression (lead compounds)” value (shortened to “inhibition of IGF-IR expression”) is reported as “demonstrated inhibition”.
With “323744 (antisense CGTGGTTGCAGCTGTGGATA; listed as DNA, chemistry not fully specified) [compound 323744]” the “inhibition of IGF-IR expression” value was “demonstrated inhibition”.
In the case of “323747 (antisense CCAGCTTCTCAGCCTCGTGG; listed as DNA, chemistry not fully specified) [compound 323747]”, the “inhibition of IGF-IR expression” value is reported as “demonstrated inhibition”.
In the case of “323762 (antisense GCCTTGTGTCCTGAGTGTCT; listed as DNA, chemistry not fully specified) [compound 323762]”, the “inhibition of IGF-IR expression” value is reported as “demonstrated inhibition”.
In the case of “323767 (antisense CCAGCGTGTCTCTCAAATGG; listed as DNA, chemistry not fully specified) [compound 323767]”, the “inhibition of IGF-IR expression” value is reported as “demonstrated inhibition”.

Same assay, conditions: quantitative RT-PCR; averages from 3 experiments

Compared with “323732 (antisense GTGAGGGTCACAGCCTTGAC; listed as DNA, chemistry not fully specified) [compound 323732]”, “323733 (antisense CCATGGTGAGGGTCACAGCC; listed as DNA, chemistry not fully specified) [compound 323733]” is higher in “%INHIB (human IGF-IR mRNA levels)” value: 59% for the first, 78% for the second.

Going from “323734 (antisense TTGGTGCGAATGTACAAGAT; listed as DNA, chemistry not fully specified) [compound 323734]” to “323735 (antisense ATTTTGTCTTTGGAGCAGTA; listed as DNA, chemistry not fully specified) [compound 323735]”, the “%INHIB (human IGF-IR mRNA levels)” value rises from 61% to 65%.

Going from “323736 (antisense AGGAAATTCTCAAAGACTTT; listed as DNA, chemistry not fully specified) [compound 323736]” to “323737 (antisense CTGCTTCGGCTGGACATGGT; listed as DNA, chemistry not fully specified) [compound 323737]”, the “%INHIB (human IGF-IR mRNA levels)” value rises from 43% to 84%.

First: 323738 (antisense TGTTCCTGCTTCGGCTGGAC; listed as DNA, chemistry not fully specified) [compound 323738]
Second: 323739 (antisense CTGCTCTCAAAGAAAGGGTA; listed as DNA, chemistry not fully specified) [compound 323739]
The “%INHIB (human IGF-IR mRNA levels)” value of the first is higher: 76% for the first, 58% for the second.

Compared with “323740 (antisense CCACTCTGCTCTCAAAGAAA; listed as DNA, chemistry not fully specified) [compound 323740]”, “323741 (antisense GTTATCCACTCTGCTCTCAA; listed as DNA, chemistry not fully specified) [compound 323741]” is higher in “%INHIB (human IGF-IR mRNA levels)” value: 0% for the first, 57% for the second.

Going from “323742 (antisense TCCTTGTTATCCACTCTGCT; listed as DNA, chemistry not fully specified) [compound 323742]” to “323743 (antisense TTGCAGCTGTGGATATCGAT; listed as DNA, chemistry not fully specified) [compound 323743]”, the “%INHIB (human IGF-IR mRNA levels)” value falls from 58% to 53%.

Going from “323744 (antisense CGTGGTTGCAGCTGTGGATA; listed as DNA, chemistry not fully specified) [compound 323744]” to “323745 (antisense AGCCTCGTGGTTGCAGCTGT; listed as DNA, chemistry not fully specified) [compound 323745]”, the “%INHIB (human IGF-IR mRNA levels)” value falls from 85% to 75%.

Going from “323746 (antisense TTCTCAGCCTCGTGGTTGCA; listed as DNA, chemistry not fully specified) [compound 323746]” to “323747 (antisense CCAGCTTCTCAGCCTCGTGG; listed as DNA, chemistry not fully specified) [compound 323747]”, the “%INHIB (human IGF-IR mRNA levels)” value rises from 62% to 85%.

Compared with “323748 (antisense GCAGCCCAGCTTCTCAGCCT; listed as DNA, chemistry not fully specified) [compound 323748]”, “323749 (antisense GCGCTGCAGCCCAGCTTCTC; listed as DNA, chemistry not fully specified) [compound 323749]” is lower in “%INHIB (human IGF-IR mRNA levels)” value: 77% for the first, 71% for the second.

Going from “323750 (antisense TTTAAAAAGATGGAGTTTTC; listed as DNA, chemistry not fully specified) [compound 323750]” to “323751 (antisense GCCACTTTAAAAAGATGGAG; listed as DNA, chemistry not fully specified) [compound 323751]”, the “%INHIB (human IGF-IR mRNA levels)” value rises from 8% to 77%.

Compared with “323752 (antisense TCCTGTCTGGACACACATTC; listed as DNA, chemistry not fully specified) [compound 323752]”, “323753 (antisense AAGAACACAGGATCTGTCCA; listed as DNA, chemistry not fully specified) [compound 323753]” is lower in “%INHIB (human IGF-IR mRNA levels)” value: 66% for the first, 38% for the second.

Going from “323754 (antisense CATAGAAGAACACAGGATCT; listed as DNA, chemistry not fully specified) [compound 323754]” to “323755 (antisense GGAACGTACACATCAGCAGC; listed as DNA, chemistry not fully specified) [compound 323755]”, the “%INHIB (human IGF-IR mRNA levels)” value rises from 33% to 36%.

Going from “323756 (antisense ACTCCTTCATAGACCATCCC; listed as DNA, chemistry not fully specified) [compound 323756]” to “323757 (antisense CGGAGATAACTTTTGAGATC; listed as DNA, chemistry not fully specified) [compound 323757]”, the “%INHIB (human IGF-IR mRNA levels)” value rises from 26% to 35%.

Compared with “323758 (antisense GAGACCGGAGATAACTTTTG; listed as DNA, chemistry not fully specified) [compound 323758]”, “323759 (antisense ATTTTGACTGTGAAATCTTC; listed as DNA, chemistry not fully specified) [compound 323759]” is lower in “%INHIB (human IGF-IR mRNA levels)” value: 29% for the first, 13% for the second.

Compared with “323760 (antisense GCGATCTCCCAGAGGACGAC; listed as DNA, chemistry not fully specified) [compound 323760]”, “323761 (antisense TGTAGTAGAAGGAGACCTCC; listed as DNA, chemistry not fully specified) [compound 323761]” is lower in “%INHIB (human IGF-IR mRNA levels)” value: 72% for the first, 26% for the second.

Compared with “323762 (antisense GCCTTGTGTCCTGAGTGTCT; listed as DNA, chemistry not fully specified) [compound 323762]”, “323763 (antisense ATCCAAGGATCAGCAGGTCG; listed as DNA, chemistry not fully specified) [compound 323763]” is lower in “%INHIB (human IGF-IR mRNA levels)” value: 84% for the first, 69% for the second.

Compared with “323764 (antisense GCTGCTTGCATATTGAAAAA; listed as DNA, chemistry not fully specified) [compound 323764]”, “323765 (antisense AAAAAGCTGCTTGCATATTG; listed as DNA, chemistry not fully specified) [compound 323765]” is lower in “%INHIB (human IGF-IR mRNA levels)” value: 77% for the first, 74% for the second.

Going from “323766 (antisense GCCCATGTCAGTTAAGGGTT; listed as DNA, chemistry not fully specified) [compound 323766]” to “323767 (antisense CCAGCGTGTCTCTCAAATGG; listed as DNA, chemistry not fully specified) [compound 323767]”, the “%INHIB (human IGF-IR mRNA levels)” value rises from 69% to 84%.
